Results: patent publication US20210085640A1, “ACYLATED CATECHIN POLYPHENOLS AND METHODS OF THEIR USE FOR THE TREATMENT OF CANCER” (Flagship Pioneering Innovations V, Inc., priority 2018, published 2021)
pIC50: −log10 of the molar value.

Legend:
Assay type in all cases: cell-based
[1] = Human Regulatory T Cell Differentiation Assay; settings: human, primary naïve CD4+ T cells isolated from PBMCs, read-out: Cell viability % DMSO
Procedure: (§1) Peripheral blood mononuclear cells (PBMCs) from whole blood donated by health volunteers were separated by Ficoll-Paque gradient centrifugation and naïve CD4^+ T cells were subsequently isolated using magnet beads (EasySep™ Human Naïve CD4^+ T Cell Isolation Kit, Cambridge, Mass.). For regulatory T cell (Treg) differentiation assay, naïve CD4^+ T cells were cultured (1-10×10^4 cells) in CTS OpTmizer medium for 6 days and stimulated with 5 ng/ml TGF-β, 100 U/ml IL-2, and ImmunoCult™ Human […] T Cell Activator; Stemcell #10990) with/without Compounds. Cell viability was determined using a viability dye (eBioscience Fixable Viability Dye eFluor 780: ThermoFisher 65-0865-14) at 1:500 dilution. The cells were gated for Treg, defined as Live, CD11c^−, CD14^−, CD19^−, CD8^−, CD4^+, CD3^+, CD25^+, FOXP3^+. Percent (%) Tregs were calculated as percentage of CD4^+, CD25^+, FOXP3^+ cells over total CD4^+ T cells. Statistical analysis was performed with GraphPad Prism Software Using One-Way ANOVA.

[2] = test system: MCF7 breast cancer cells; test: Cancer cell survival (CellTiter-Glo), MCF7; settings: 72 h
Summary of the method: (§2)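 Following overnight plating of 4×10^3 cells per well, triplicate wells received compound at nine concentrations (10× dosing stocks: fatty acids 1 μM-10 mM, all others 100 nM-1 mM). Incubation lasted 72 h at 37 C under 5% CO2. CellTiter-Glo luminescence then gave percent survival and IC50.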

[3] = test system: naïve CD4^+ T cells; test: Human Regulatory T Cell Differentiation Assay; settings: 6 days
Procedure: as §1

[4] = test system: PC-3 prostate cancer cells; test: Cancer cell survival (CellTiter-Glo), PC-3; settings: PC-3 cells, 72 h
Summary of the method: as §2

[5] = test system: A-431 skin cancer cells; test: Cancer cell survival (CellTiter-Glo), A-431; set-up: Cell survival at given concentration: unit not given here; settings: A-431 cells, 72 h
Summary of the method: as §2

[6] = test system: A549 lung cancer cells; test: Cancer cell survival (CellTiter-Glo), A549; settings: 72 h
Summary of the method: as §2

[7] = test system: Daudi lymphoma cancer cells; test: Cancer cell survival (CellTiter-Glo), Daudi; settings: 72 h
Summary of the method: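 Daudi cells (4×10^3/well) were exposed for 72 h at 37 °C to nine concentrations of compound, added as 10× solutions spanning 1 μM–10 mM (fatty acids) or 100 nM–1 mM (others). CellTiter-Glo luminescence gave % survival versus untreated, medium-blank corrected; IC50 derived.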

[8] = test system: HCT 116 colorectal cancer cells; test: Cancer cell survival (CellTiter-Glo), HCT 116; settings: HCT 116 cells, 72 h
Summary of the method: as §2

[9] = test system: AGS stomach cancer cells; test: Cancer cell survival (CellTiter-Glo), AGS; set-up: Cell survival at given concentration: unit not given here
Summary of the method: as §2

[10] = test system: T24 bladder cancer cells; test: Cancer cell survival (CellTiter-Glo), T24; settings: 72 h
Summary of the method: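 Viability by CellTiter-Glo after 72 h compound treatment of T24 bladder cancer cells (4×10^3/well, plated the night before), nine concentration levels in triplicate. Percent survival normalised to untreated cells minus medium background, from which IC50 was determined.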

## C[C@@H](O)CCO [(R)-1,3-Butanediol]
[1]
  viability at 6 days, 100 µM: 90 to 110%
[1]; 0.5 mM
  viability at 6 days, 0.5 mM: 90 to 110%

## CC(=O)O [Acetic acid]
[1]; 1 mM
  viability at 6 days, 1 mM: 90 to 110%
[1]
  viability at 6 days, 3 mM: 90 to 110%

## CCCC(=O)O [Butyric Acid]
[1]
  viability at 6 days, 3 mM: < 90%

## O=C(O[C@@H]1Cc2c(O)cc(O)cc2O[C@@H]1c1cc(O)c(O)c(O)c1)c1cc(O)c(O)c(O)c1 [EGCG, epigallocatechin gallate]
[2]; 101 nM
  Cell survival at given concentration: 1.01
[2]; 318 nM
  Cell survival at given concentration: 0.99
[2]; 1 μM
  Cell survival at given concentration: 0.99
[2]; 3 μM
  Cell survival at given concentration: 0.97
[2]; 10 μM
  Cell survival at given concentration: 0.96
[2]; 32 μM
  Cell survival at given concentration: 0.77
[2]; 100 μM
  Cell survival at given concentration: 0.55
[2]; 316 μM
  Cell survival at given concentration: 0.51
[2]; 1000 μM
  Cell survival at given concentration: 0.11
[2]; Table 5.1
  pIC50: 3.64
[3]; 100 nM
  Cell viability % DMSO: = (90% ≥ ≤110%: =)
  Treg induction % DMSO: = (90% ≥ ≤110%: =)
[3]; 1 uM
  Cell viability % DMSO: = (90% ≥ ≤110%: =)
  Treg induction % DMSO: = (90% ≥ ≤110%: =)
[4]; 101 nM
  Cell survival at given concentration: 1.01
[4]; 318 nM
  Cell survival at given concentration: 0.99
[4]; 1 μM
  Cell survival at given concentration: 1.01
[4]; 3 μM
  Cell survival at given concentration: 0.97
[4]; 10 μM
  Cell survival at given concentration: 0.99
[4]; 32 μM
  Cell survival at given concentration: 0.82
[4]; 100 μM
  Cell survival at given concentration: 0.60
[4]; 316 μM
  Cell survival at given concentration: 0.51
[4]; 1000 μM
  Cell survival at given concentration: 0.10
[4]; Table 8.1
  pIC50: 3.61
[5]; 101 nM
  Cell survival at given concentration: 1.02
[5]; 318 nM
  Cell survival at given concentration: 1.02
[5]; 1 μM
  Cell survival at given concentration: 1.02
[5]; 3 μM
  Cell survival at given concentration: 1.01
[5]; 10 μM
  Cell survival at given concentration: 1.04
[5]; 32 μM
  Cell survival at given concentration: 0.78
[5]; 100 μM
  Cell survival at given concentration: 0.38
[5]; 316 μM
  Cell survival at given concentration: 0.30
[5]; 1000 μM
  Cell survival at given concentration: 0.04
[5]; Table 9.1
  pIC50: 4.09
[6]; 101 nM
  Cell survival at given concentration: 1.02
[6]; 318 nM
  Cell survival at given concentration: 1.05
[6]; 1 μM
  Cell survival at given concentration: 1.03
[6]; 3 μM
  Cell survival at given concentration: 1.04
[6]; 10 μM
  Cell survival at given concentration: 0.99
[6]; 32 μM
  Cell survival at given concentration: 0.77
[6]; 100 μM
  Cell survival at given concentration: 0.33
[6]; 316 μM
  Cell survival at given concentration: 0.21
[6]; 1000 μM
  Cell survival at given concentration: 0.01
[6]; Table 7.1
  pIC50: 4.17
[7]; 101 nM
  Cell survival at given concentration: 1.03
[7]; 318 nM
  Cell survival at given concentration: 1.02
[7]; 1 μM
  Cell survival at given concentration: 1.01
[7]; 3 μM
  Cell survival at given concentration: 0.97
[7]; 10 μM
  Cell survival at given concentration: 0.76
[7]; 32 μM
  Cell survival at given concentration: 0.31
[7]; 100 μM
  Cell survival at given concentration: 0.17
[7]; 316 μM
  Cell survival at given concentration: 0.00
[7]; 1000 μM
  Cell survival at given concentration: 0.00
[7]; Table 4.1
  pIC50: 4.69
[8]; 101 nM
  Cell survival at given concentration: 1.05
[8]; 318 nM
  Cell survival at given concentration: 0.98
[8]; 1 μM
  Cell survival at given concentration: 1.00
[8]; 3 μM
  Cell survival at given concentration: 1.03
[8]; 10 μM
  Cell survival at given concentration: 1.00
[8]; 32 μM
  Cell survival at given concentration: 0.61
[8]; 100 μM
  Cell survival at given concentration: 0.25
[8]; 316 μM
  Cell survival at given concentration: 0.06
[8]; 1000 μM
  Cell survival at given concentration: 0.00
[8]; Table 6.1
  pIC50: 4.33
[9]; 101 nM
  Cell survival at given concentration: 1.01
[9]; 318 nM
  Cell survival at given concentration: 1.02
[9]; 1 μM, Table 10.1
  Cell survival at given concentration: 1.05
[9]; 3 μM, Table 10.1
  Cell survival at given concentration: 1.02
[9]; 10 μM, Table 10.1
  Cell survival at given concentration: 0.90
[9]; 32 μM, Table 10.1
  Cell survival at given concentration: 0.49
[9]; 100 μM, Table 10.1
  Cell survival at given concentration: 0.20
[9]; 316 μM
  Cell survival at given concentration: 0.08
[9]; 1000 μM
  Cell survival at given concentration: 0.00
[9]; Table 10.1
  pIC50: 4.48
[10]; 101 nM
  Cell survival at given concentration: 1.00
[10]; 318 nM
  Cell survival at given concentration: 0.97
[10]; 1 μM
  Cell survival at given concentration: 1.02
[10]; 3 μM
  Cell survival at given concentration: 1.01
[10]; 10 μM
  Cell survival at given concentration: 0.96
[10]; 32 μM
  Cell survival at given concentration: 0.58
[10]; 100 μM
  Cell survival at given concentration: 0.15
[10]; 316 μM
  Cell survival at given concentration: 0.03
[10]; 1000 μM
  Cell survival at given concentration: 0.03
[10]; Table 3.1, read-out: 1050
  pIC50: 4.42

## CC[C@H]1[C@@H](O)[C@@H]2[C@H](CC[C@]3(C)[C@@H]([C@H](C)CCC(=O)O)CC[C@@H]23)[C@@]2(C)CC[C@@H](O)C[C@@H]12 [Obeticholic acid]
[1]
  viability at 6 days, 100 µM: 90 to 110%

## CCC(=O)O [Propionic acid]
[1]
  viability at 6 days, 3 mM: 90 to 110%
[3]; Homo sapiens, CD4+ T, 144 h, 3 mM, read-out: Treg induction % DMSO
  activity at 3000 µM: > 130%

## O=c1c(O)c(-c2ccc(O)c(O)c2)oc2cc(O)cc(O)c12 [Quercetin]
[1]; 100 nM
  viability at 6 days, 0.1 µM: 90 to 110%
[1]; 1 uM
  viability at 6 days, 1 µM: 90 to 110%

## CN(CCOc1ccc(CC2SC(=O)NC2=O)cc1)c1ccccn1 (stereo not shown) [Rosiglitazone]
[1]; 10 uM
  viability at 6 days, 10 µM: 90 to 110%
[1]
  viability at 6 days, 100 µM: < 90%

## CC(O)CC(=O)[O-].[Na+] (stereo not shown) [Sodium BHB]
[3]; 2 mM
  Cell viability % DMSO: = (90% ≥ ≤110%: =)
  Treg induction % DMSO: + (110% > ≤130%: +)
[3]; 20 mM
  Cell viability % DMSO: − (<90%: −)
  Treg induction % DMSO: = (90% ≥ ≤110%: =)
